Assay results published in PubChem BioAssay (NCI).
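Step 1: Grow cells in 96-well plates. Step 2: Expose to compound for 48 hours at 5 concentrations. Step 3: Interpolate endpoints linearly; if unreached, use highest concentration. Abbreviation: GI50, concentration required for 50% inhibition of growth. The concentration for full growth arrest is given as TGI.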

Assays:
Test in all cases: inhibition of tumour cell growth, NCI panel, 48 h
A549 NSCLC = test system: A549 NSCLC
ACHN renal = test system: ACHN renal
CAKI-1 renal = test system: CAKI-1 renal
HCT-15 colon = test system: HCT-15 colon
LOX IMVI melanoma = test system: LOX IMVI melanoma
NCI-H460 lung = test system: NCI-H460 lung
NCI-H522 lung = test system: NCI-H522 lung
OVCAR-4 ovarian = test system: OVCAR-4 ovarian
SF-295 CNS = test system: SF-295 CNS
U251 CNS = test system: U251 CNS
UO-31 renal = test system: UO-31 renal

| SMILES | TGI (A549 NSCLC) | TGI (ACHN renal) | TGI (CAKI-1 renal) | TGI (HCT-15 colon) | TGI (LOX IMVI melanoma) | TGI (NCI-H460 lung) | TGI (NCI-H522 lung) | TGI (OVCAR-4 ovarian) | TGI (SF-295 CNS) | TGI (U251 CNS) | TGI (UO-31 renal) | GI50 (A549 NSCLC) | GI50 (ACHN renal) | GI50 (CAKI-1 renal) | GI50 (HCT-15 colon) | GI50 (NCI-H522 lung) |
| --- | --- | --- | --- | --- | --- | --- | --- | --- | --- | --- | --- | --- | --- | --- | --- | --- |
| O=[N+]([O-])c1cc(C2ON=C(c3ccccc3)N2C23CC4CC(CC(C4)C2)C3)ccc1Cl (centres undefined) | > 100 µM | > 100 µM | > 100 µM | > 100 µM | > 100 µM | > 100 µM | > 100 µM | > 100 µM | > 100 µM | > 100 µM | > 100 µM | – | – | – | – | – |
| CSc1c(C#N)c(=O)n(N)c2n[nH]c(C)c12 | > 100 µM | – | > 100 µM | > 100 µM | > 100 µM | > 100 µM | > 100 µM | > 100 µM | – | > 100 µM | > 100 µM | – | – | – | – | – |
| COc1ccc(-c2c3c(n(C4OC(COC(C)=O)C(OC(C)=O)C(OC(C)=O)C4OC(C)=O)c(=S)c2C#N)CCCC3)cc1 (centres undefined) | > 100 µM | > 100 µM | 79.9 µM | > 100 µM | > 100 µM | > 100 µM | > 100 µM | 98.9 µM | > 100 µM | > 100 µM | > 100 µM | – | – | – | – | – |
| C[C@@H](Br)[C@@H]1CC[C@H]2c3[nH]c4ccccc4c3CCN2C1 | > 100 µM | > 100 µM | 52.4 µM | 48.1 µM | 32.9 µM | 70.1 µM | 29.5 µM | > 100 µM | 47.8 µM | 55.8 µM | > 100 µM | – | – | – | – | – |
| CN(C)CCNc1nc2c(c(=O)n(C)c(=O)n2C)n1C | > 100 µM | > 100 µM | > 100 µM | > 100 µM | > 100 µM | > 100 µM | > 100 µM | > 100 µM | > 100 µM | > 100 µM | > 100 µM | – | – | – | – | – |
| COC(=O)c1cc(OCc2cc(OCc3ccc(Br)cc3)cc(OCc3ccc(Br)cc3)c2)cc(OCc2cc(OCc3ccc(Br)cc3)cc(OCc3ccc(Br)cc3)c2)c1 | > 100 µM | > 100 µM | > 100 µM | > 100 µM | – | > 100 µM | > 100 µM | > 100 µM | > 100 µM | > 100 µM | > 100 µM | – | – | – | – | – |
| O=C(O)c1cc2sc(C(=O)O)cc2s1 | > 100 µM | – | > 100 µM | > 100 µM | > 100 µM | > 100 µM | > 100 µM | > 100 µM | > 100 µM | > 100 µM | – | – | – | – | – | – |
| O=C1OCC(CN2CCC(n3c(=O)[nH]c4ccccc43)CC2)=C1c1ccccc1 | > 100 µM | 89.6 µM | 51.4 µM | 54.9 µM | 56.2 µM | 21.2 µM | 46.5 µM | 39.6 µM | 72.6 µM | > 100 µM | 35.2 µM | – | – | – | – | – |
| O=Cc1ccc(Oc2c3ccccc3nc3ccccc23)cc1 | 49 µM | 14 µM | 22.3 µM | 19.5 µM | 11.7 µM | 33.8 µM | – | 16.3 µM | 55.4 µM | 21.9 µM | – | – | – | – | – | – |
| COc1ccc(OC/C(N=Cc2cccnc2)=N/NC(=O)c2ccncc2)cc1 | > 100 µM | > 100 µM | > 100 µM | > 100 µM | > 100 µM | > 100 µM | 34 µM | > 100 µM | > 100 µM | > 100 µM | – | – | – | – | – | – |
| COc1ccc(OC)c2c1-c1nnnn1CCC2(C)C | – | > 100 µM | – | > 100 µM | > 100 µM | > 100 µM | > 100 µM | > 100 µM | > 100 µM | > 100 µM | > 100 µM | – | – | – | – | – |
| COc1ccccc1N1C(=O)/C(=C\c2ccccc2)SC1c1cc(OC)c(OC)c(OC)c1 (centres undefined) | > 100 µM | > 100 µM | > 100 µM | > 100 µM | 50.3 µM | – | 74.3 µM | > 100 µM | > 100 µM | 74.2 µM | > 100 µM | – | – | – | – | – |
| [B]C(=O)NC(CC(C)C)C(=O)NC1c2ccsc2C(=O)C1O (centres undefined) (tested in a mixture with another compound) | > 100 µM | > 100 µM | – | > 100 µM | > 100 µM | > 100 µM | > 100 µM | > 100 µM | > 100 µM | > 100 µM | > 100 µM | – | – | – | – | – |
| COc1cc2oc(=O)cc(C)c2c(OC)c1OC | > 100 µM | > 100 µM | – | > 100 µM | > 100 µM | – | – | > 100 µM | > 100 µM | > 100 µM | > 100 µM | – | – | – | – | – |
| COc1ccc(C(CC(=O)c2ccc(O)cc2)C(C(=O)c2ccc(O)cc2)C(c2ccc(OC)cc2)C2C(=O)NC(=S)NC2=O)cc1 (centres undefined) | 89.9 µM | 43.6 µM | – | 45.3 µM | 38 µM | 39.5 µM | 29.9 µM | 63.2 µM | 52.3 µM | 72.3 µM | 33.8 µM | – | – | – | – | – |
| O=C1CCCC1C(O)(C(F)(F)Cl)C(F)(F)Cl (centres undefined) | > 10 µM | > 10 µM | > 10 µM | > 10 µM | > 10 µM | > 10 µM | > 10 µM | > 10 µM | > 10 µM | > 10 µM | – | – | – | – | – | – |
| Cc1cn(C2CC(/[N+]([O-])=N\Nc3ccc([N+](=O)[O-])cc3)C(CO)O2)c(=O)[nH]c1=O (centres undefined) | > 100 µM | > 100 µM | > 100 µM | > 100 µM | > 100 µM | > 100 µM | > 100 µM | – | > 100 µM | > 100 µM | > 100 µM | – | – | – | – | – |
| COC(=O)/C=C/[C@H]1[C@H](C)N1S(=O)(=O)c1ccc(C)cc1 (some centres undefined) | > 100 µM | > 100 µM | > 100 µM | > 100 µM | > 100 µM | > 100 µM | > 100 µM | > 100 µM | > 100 µM | > 100 µM | – | – | – | – | – | – |
| COc1cc(CNC(=O)CCCCCCCCCCSC#N)ccc1O | 42.1 µM | – | 36.8 µM | 23 µM | 33 µM | 38.2 µM | 27.8 µM | 57.6 µM | 37.4 µM | 34.1 µM | 21.9 µM | – | – | – | – | – |
| COc1cc(/C=C2\CCCC3=C2N=C2SC=NN2C3c2cc(OC)c(OC)c(OC)c2)cc(OC)c1OC (centres undefined) | > 100 µM | 3.74 µM | > 100 µM | 5.91 µM | – | – | 8.51 µM | – | – | – | – | 2950 nM | 1880 nM | 3.43 µM | 2250 nM | 2720 nM |
